Assay results taken from US9034303B2, “Neuroprotective and neuro-restorative iron chelators and monoamine oxidase inhibitors and uses thereof” (priority 2010, dated 2015).
Entries after “also recorded” stand apart in the source; their conditions may differ.

How the values were obtained:
[1] = Stability in aqueous solution (PBS or saline) followed by HPLC; assay type: physicochemical; conditions: for Amount of compound remaining (%): 25° C., 0.5 mM
Description: (§1) Using high pressure liquid chromatography (HPLC), the stability of each of the tested compounds was determined by following its respective chemical character over time in either phosphate buffered saline (PBS) and/or 0.85% saline solution (sodium chloride). In each case, 0.5 mM of the tested compound in PBS or saline solution was incubated at 25° C. or at 37° C. for 20 hours or, in some cases, up to two days (48 hours).

[2] = Follow-up stability experiment at 37° C. in PBS; assay type: physicochemical
Description: as §1
In addition, in a follow-up experiment the instability of M30, and the stability of compounds 3, 7 and 8 was also confirmed at 37° C. in PBS, Table 2, below.

rat brain MAO-B = rat brain MAO-B (Rattus norvegicus (Rat), UniProt P19643); test: In vitro inhibition of rat brain MAO-B (14C-PEA substrate); assay type: biochemical
rat brain MAO-B, sequence (P19643 whole entry): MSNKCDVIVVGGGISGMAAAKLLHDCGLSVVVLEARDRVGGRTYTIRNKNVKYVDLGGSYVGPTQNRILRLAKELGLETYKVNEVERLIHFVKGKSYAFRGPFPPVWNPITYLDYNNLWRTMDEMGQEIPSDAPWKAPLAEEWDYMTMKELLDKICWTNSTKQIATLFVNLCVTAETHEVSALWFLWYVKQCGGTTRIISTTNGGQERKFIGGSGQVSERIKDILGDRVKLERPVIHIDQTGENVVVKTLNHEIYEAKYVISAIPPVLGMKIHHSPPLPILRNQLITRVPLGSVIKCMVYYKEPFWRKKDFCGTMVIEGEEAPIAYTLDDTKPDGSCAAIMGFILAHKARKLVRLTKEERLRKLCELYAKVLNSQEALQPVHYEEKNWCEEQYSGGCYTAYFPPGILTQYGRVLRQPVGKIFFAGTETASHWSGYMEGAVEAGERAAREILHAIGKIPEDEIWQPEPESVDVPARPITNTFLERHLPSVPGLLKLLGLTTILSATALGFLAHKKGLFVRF
Description: Rats are decapitated and the brains quickly taken into a weighted ice-cold sucrose buffer (0.32 M) and their weights determined. All subsequent procedures are performed at 0° C. The brains are homogenized in 0.32 M sucrose (one part tissue to 20 parts sucrose) in a Teflon glass homogenizer followed by the addition of sucrose buffer to a final concentration of 10% homogenate. The homogenates are centrifuged at 600 g for 15 min. The supernatant fractions are taken out and centrifuged at 4500 g for 30 min, the pellet diluted in 0.32 M sucrose buffer and kept frozen for later assaying of MAO.
MAO-A and MAO-B activities are determined in rat brain homogenate in vitro following incubation with varying concentrations of the test compounds.
The in vitro inhibitory activity of the compounds is tested against rat brain MAO-B. The test compounds are added to buffer containing 10^−7 M clorgylin and are incubated with the tissue homogenate for 30 or 60 min at 37° C. before addition of ^14C-PEA.
The test compound was added to a suitable dilution of the enzyme preparation (70 μg protein for MAO-B and 150 μg MAO-A assay) in 0.1 M phosphate buffer (pH 7.4). The mixture was incubated together with […], a specific inhibitor of MAO-B (for determination of MAO-A) or 0.05 M clorgylin, a specific inhibitor of MAO-A (for determination of MAO-B). Incubation was carried for 0.5 or 1 h at 37° C. before addition of ^14C-5-hydroxytryptamine binoxalate (5-HT) (100 or 400 μM) for determination of MAO-A, or ^14C-phenylethylamine (^14C-PEA) 100 or 400 μM for determination of MAO-B, and incubation continued for 30 min or 20 min, respectively. The reaction was stopped with 2 M ice-cold citric acid, and the metabolites were extracted and determined by liquid-scintillation counting in cpm units.
The reaction was stopped with 2 M ice-cold citric acid, and the metabolites were extracted with ethyl acetate and levels of radioactivity were determined by liquid-scintillation counting in CPM units. All assays were performed at least in duplicate and outcome was expressed as a mean±SEM. Data were analyzed by a Student's t test. Variations were considered statistically significant at a p value of 0.05.
MAO-A and MAO-B activity was measured using radioactive substrates. The substrate for MAO-A was 5 HT and for MAO-B was PEA. When measuring the activity of MAO-A, the MAO-B activity was inhibited with deprenyl and when measuring the activity of MAO-B the activity of MAO-A was inhibited with clorgylin. Blank samples were produced using TCP to inhibit both of the enzymes. The metabolites were extracted to toluene and read in a β-counter. The results are expressed in relative activity and normalized to the amount of protein in the tissue.

MAO-B = MAO-B (Mus musculus (Mouse), UniProt Q8BW75); test: In vivo MAO-B inhibition in mice after a single i.p. injection; conditions: one hour later
MAO-B, sequence (Q8BW75 whole entry): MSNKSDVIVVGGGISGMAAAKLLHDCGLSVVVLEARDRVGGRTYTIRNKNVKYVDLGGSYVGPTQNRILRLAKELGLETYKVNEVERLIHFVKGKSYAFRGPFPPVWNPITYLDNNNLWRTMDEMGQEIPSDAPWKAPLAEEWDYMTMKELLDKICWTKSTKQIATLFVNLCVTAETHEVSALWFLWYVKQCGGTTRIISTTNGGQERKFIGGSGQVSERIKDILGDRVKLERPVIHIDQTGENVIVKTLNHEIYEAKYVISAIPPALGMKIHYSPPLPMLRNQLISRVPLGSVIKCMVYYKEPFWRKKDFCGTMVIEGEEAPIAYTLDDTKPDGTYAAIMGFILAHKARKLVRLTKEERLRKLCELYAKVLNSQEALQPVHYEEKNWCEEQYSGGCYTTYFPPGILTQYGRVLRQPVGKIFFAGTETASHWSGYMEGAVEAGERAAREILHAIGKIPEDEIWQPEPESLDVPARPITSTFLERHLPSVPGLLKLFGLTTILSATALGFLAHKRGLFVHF
Description: For the MAO-inhibition study, mice (6 mice in each group) were injected intraperitoneally (i.p.) with compound 3 at the dosage of 5 or 10 mg/kg; or with M30 at the dosage of 10 mg/kg. Control mice received saline (0.1 mL) i.p. One hour later the mice were killed by cervical dislocation, while striatum and small intestine were removed rapidly and frozen in liquid nitrogen for further analysis. FIGS. 3 and 4 show MAO-A/MAO-B in vivo activity of compound 3 compared to the activity of M30. FIG. 3 presents an MAO inhibition in striatum, and FIG. 4 presents an MAO inhibition in intestine. The percent inhibition was computed based on comparison to control animals.

in vitro = conditions: human
Description: (§2) The cytotoxicity of compound 3 was assessed in vitro using two standard cell lines, HepG2, derived from a human hepatocellular carcinoma, and SH-SY5Y, derived from a human neuroblastoma, both in the presence and absence of excess iron.
(§3) HepG2 cells were maintained at ˜5% CO2, 37° C., and 95% relative humidity in minimal essential media (MEM) supplemented with 10% fetal bovine serum plus 0.1 mM non-essential amino acids, 2 mM L-glutamine, and penicillin/streptomycin. SH-SY5Y cells were maintained at ˜5% CO2, 37° C., and 95% relative humidity in a mixture of minimal essential media (MEM) and F12 K media (1:1, v:v) supplemented with 10% fetal bovine serum plus 0.1 mM non-essential amino acids, 2 mM L-glutamine, and penicillin/streptomycin. The cells were subcultured every two to three days and plated in tissue culture treated opaque white 96-well plates at a density of 1×10^4 cells/well and incubated at ˜5% CO2, 37° C., and 95% relative humidity overnight prior to initiation of the assay.
(§4) A series of DMSO stocks of the test article at 100× of the final concentration were diluted 1:100 with fresh culture media (final DMSO concentration was 1%). The media from the plated cells was removed and replaced with 100 μL of media containing test article or tamoxifen with final concentrations ranging between 0.01 to 1000 μM in triplicate. Wells containing no cells were used as background controls. Tamoxifen was used as a known positive control and DMSO alone was used as a vehicle control. The cells were incubated for four hours at ˜5% CO2, 37° C., and 95% relative humidity.
(§5) Cell viability was determined using a commercially available kit to determine ATP levels by luminescence. Briefly, the buffer and lyophilized substrate from the kit were equilibrated to room temperature. The buffer was used to reconstitute the substrate just prior to addition to the wells of the cell plate (100 μL per well). The plate was placed into the Tecan Infinite M200 plate reader, agitated for 10 minutes followed by a 10 minute wait period, then read using an integration time of 0.5 seconds with no attenuation.
(§6) The mean luminescence from the test article treated cells was compared to that treated by DMSO only.

SHSY-5Y cells = test: in vitro; conditions: read-out: LC50 (μM) SHSY-5Y; four hours incubation
Description: as §2, §3, §4, §5, §6

C#CCN(C)CCc1ccc(O)c2ncccc12 [Compound 3, 5-[2-(methyl-2-propyn-1-ylamino)ethyl]-8-quinolinol]
Stability in aqueous solution (in words) ([1]; PBS and/or saline solution): highly stable chemically; also recorded: ^+Compound 3 was stable for up to 48 hours at 25 °C in both saline and PBS | Amount of compound remaining (%) ([1]; PBS, 0.5 hours): 100% | Amount of compound remaining (%) ([1]; PBS, 2 hours): 100% | Amount of compound remaining (%) ([1]; PBS, 20 hours): 100% | Amount of compound remaining (%) ([1]; PBS, 48 hours): 100% | Amount of compound remaining (%) ([1]; saline, 0.5 hours): 100% | Amount of compound remaining (%) ([1]; saline, 2 hours): 100% | Amount of compound remaining (%) ([1]; saline, 20 hours): 100% | Amount of compound remaining (%) ([1]; saline, 48 hours): 100% | Amount of compound remaining (%) ([2]; 3 hours): ≧100% | Amount of compound remaining (%) ([2]; 8 hours): 95.7% | Amount of compound remaining (%) ([2]; 24 hours): ≧100% | Amount of compound remaining (%) ([2]; 48 hours): 87.2% | IC50 (rat brain MAO-B): 10 to 30 nM | Inhibition of rat brain MAO-B in vitro (in words) (rat brain MAO-B; rat brain): potent inhibitors | MAO-B inhibition in striatum (MAO-B; 5 or 10 mg/kg): inhibited in a dose responsive fashion | MAO-B inhibition in intestine (MAO-B; small intestine): Reduced inhibition in the intestinal tissue versus striatal tissue | CC50 at 4 h (in vitro): > 1000 µM | CC50 at 4 h (in vitro; LC50 (μM) SHSY-5Y, four hours incubation): 865 µM | CC50 (SHSY-5Y cells): 885 µM
